The target of data set [1] is RAF proto-oncogene serine/threonine-protein kinase (Homo sapiens) (UniProt P04049). Kind of data set: Inhibition of c-Raf assessed as residual activity of enzyme at 10 uM.
Data set [2] deals with Serine/threonine-protein kinase mTOR (Homo sapiens) (UniProt P42345). Kind of data set: Inhibition of mTOR assessed as residual activity of enzyme at 10 uM.
Data set [3] shares this target. Nature of the data set: Inhibition of mTOR assessed as residual activity of enzyme at 25 uM.
Data set [4] concerns the target T1, Serine/threonine-protein kinase TAO1 (Homo sapiens) (UniProt Q7L7X3).
T1 sequence (whole entry): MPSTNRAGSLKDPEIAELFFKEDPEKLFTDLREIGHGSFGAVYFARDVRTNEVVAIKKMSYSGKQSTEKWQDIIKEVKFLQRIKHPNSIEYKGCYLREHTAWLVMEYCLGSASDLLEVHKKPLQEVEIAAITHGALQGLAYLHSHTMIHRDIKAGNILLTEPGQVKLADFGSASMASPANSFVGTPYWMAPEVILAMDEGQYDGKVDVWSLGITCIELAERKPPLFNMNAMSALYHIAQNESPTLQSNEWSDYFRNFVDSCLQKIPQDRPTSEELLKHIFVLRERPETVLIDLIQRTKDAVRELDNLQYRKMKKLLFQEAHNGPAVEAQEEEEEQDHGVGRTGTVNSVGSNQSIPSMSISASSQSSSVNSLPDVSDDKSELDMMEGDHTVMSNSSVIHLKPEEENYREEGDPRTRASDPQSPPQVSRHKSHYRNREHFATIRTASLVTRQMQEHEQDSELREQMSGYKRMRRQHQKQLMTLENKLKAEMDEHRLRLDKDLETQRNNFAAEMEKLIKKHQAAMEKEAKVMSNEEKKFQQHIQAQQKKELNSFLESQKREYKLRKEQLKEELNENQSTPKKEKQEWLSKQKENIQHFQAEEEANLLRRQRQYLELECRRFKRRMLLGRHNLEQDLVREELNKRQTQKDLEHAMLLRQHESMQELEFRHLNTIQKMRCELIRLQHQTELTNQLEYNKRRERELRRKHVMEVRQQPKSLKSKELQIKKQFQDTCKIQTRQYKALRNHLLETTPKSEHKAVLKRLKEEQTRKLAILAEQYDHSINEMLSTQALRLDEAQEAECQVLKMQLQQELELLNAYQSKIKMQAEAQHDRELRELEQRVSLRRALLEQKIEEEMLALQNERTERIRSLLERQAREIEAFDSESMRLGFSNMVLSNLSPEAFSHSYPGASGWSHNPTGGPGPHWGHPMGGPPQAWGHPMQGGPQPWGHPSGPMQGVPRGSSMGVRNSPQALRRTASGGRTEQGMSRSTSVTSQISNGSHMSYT
Kind of data set: Inhibition of TAO1 assessed as residual activity of enzyme at 10 uM.

Data set [5] has as its target T1, Serine/threonine-protein kinase TAO1 (Homo sapiens). Nature of the data set: Inhibition of TAO1 assessed as residual activity of enzyme at 25 uM.
Data set [6] has as its target T2, Serine/threonine-protein kinase TAO2 (Homo sapiens) (UniProt Q9UL54).
T2 sequence (whole entry): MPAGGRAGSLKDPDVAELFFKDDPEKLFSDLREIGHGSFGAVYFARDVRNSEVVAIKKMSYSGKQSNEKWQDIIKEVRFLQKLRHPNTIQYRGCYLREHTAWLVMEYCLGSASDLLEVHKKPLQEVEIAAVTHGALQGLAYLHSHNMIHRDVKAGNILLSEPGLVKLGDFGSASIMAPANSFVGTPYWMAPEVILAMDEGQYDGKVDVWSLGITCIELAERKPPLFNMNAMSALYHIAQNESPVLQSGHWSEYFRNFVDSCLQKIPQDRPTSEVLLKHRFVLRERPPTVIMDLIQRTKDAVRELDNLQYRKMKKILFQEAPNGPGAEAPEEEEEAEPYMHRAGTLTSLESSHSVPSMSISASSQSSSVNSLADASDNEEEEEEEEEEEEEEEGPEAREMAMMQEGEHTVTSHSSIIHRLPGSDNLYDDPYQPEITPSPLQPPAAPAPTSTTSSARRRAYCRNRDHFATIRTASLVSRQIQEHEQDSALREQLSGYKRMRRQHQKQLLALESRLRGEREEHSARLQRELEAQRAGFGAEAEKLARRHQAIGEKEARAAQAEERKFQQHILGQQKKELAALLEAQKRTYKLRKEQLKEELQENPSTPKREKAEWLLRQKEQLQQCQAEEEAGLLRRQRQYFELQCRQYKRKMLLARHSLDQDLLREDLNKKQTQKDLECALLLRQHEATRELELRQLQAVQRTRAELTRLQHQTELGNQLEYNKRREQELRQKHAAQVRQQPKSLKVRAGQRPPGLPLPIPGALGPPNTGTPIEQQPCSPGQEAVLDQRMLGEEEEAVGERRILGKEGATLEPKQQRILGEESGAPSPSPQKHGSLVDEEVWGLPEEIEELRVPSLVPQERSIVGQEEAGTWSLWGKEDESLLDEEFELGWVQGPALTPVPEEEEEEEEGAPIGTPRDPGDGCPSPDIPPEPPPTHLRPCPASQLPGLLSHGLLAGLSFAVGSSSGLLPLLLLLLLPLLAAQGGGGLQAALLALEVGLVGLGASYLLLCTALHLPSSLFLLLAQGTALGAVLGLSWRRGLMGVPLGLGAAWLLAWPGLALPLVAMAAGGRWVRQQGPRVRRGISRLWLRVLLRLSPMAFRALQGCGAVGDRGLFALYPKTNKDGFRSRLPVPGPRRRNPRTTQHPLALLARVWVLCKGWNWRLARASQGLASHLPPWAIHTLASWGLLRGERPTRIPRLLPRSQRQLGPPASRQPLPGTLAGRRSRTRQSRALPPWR
Kind of data set: Inhibition of TAO2 assessed as residual activity of enzyme at 10 uM.

Data set [7] concerns the target Leucine-rich repeat serine/threonine-protein kinase 2 (Homo sapiens) (UniProt Q5S007). Nature of the data set: Inhibition of wild type LRRK2 expressed in mouse SN4741 cells assessed as reduction in hydrogen peroxide-induced neurotoxicity at 10 uM by measuring cell survival after 48 hrs by crystal violet assay relative to control. The data set is classed as cell-based.

The nature of data set [8]: Neurotoxicity in rat primary cortical neurons assessed as cell survival at 10 uM after 24 hrs by MTT assay. The data set is classed as toxicity, cell-based, Cerebral cortex neuron. Conditions: read-out: Activity. In general terms: Formazan colour is commonly taken as a measure of viable cells.

Leucine-rich repeat serine/threonine-protein kinase 2 (Homo sapiens), sequence (Q5S007 whole entry): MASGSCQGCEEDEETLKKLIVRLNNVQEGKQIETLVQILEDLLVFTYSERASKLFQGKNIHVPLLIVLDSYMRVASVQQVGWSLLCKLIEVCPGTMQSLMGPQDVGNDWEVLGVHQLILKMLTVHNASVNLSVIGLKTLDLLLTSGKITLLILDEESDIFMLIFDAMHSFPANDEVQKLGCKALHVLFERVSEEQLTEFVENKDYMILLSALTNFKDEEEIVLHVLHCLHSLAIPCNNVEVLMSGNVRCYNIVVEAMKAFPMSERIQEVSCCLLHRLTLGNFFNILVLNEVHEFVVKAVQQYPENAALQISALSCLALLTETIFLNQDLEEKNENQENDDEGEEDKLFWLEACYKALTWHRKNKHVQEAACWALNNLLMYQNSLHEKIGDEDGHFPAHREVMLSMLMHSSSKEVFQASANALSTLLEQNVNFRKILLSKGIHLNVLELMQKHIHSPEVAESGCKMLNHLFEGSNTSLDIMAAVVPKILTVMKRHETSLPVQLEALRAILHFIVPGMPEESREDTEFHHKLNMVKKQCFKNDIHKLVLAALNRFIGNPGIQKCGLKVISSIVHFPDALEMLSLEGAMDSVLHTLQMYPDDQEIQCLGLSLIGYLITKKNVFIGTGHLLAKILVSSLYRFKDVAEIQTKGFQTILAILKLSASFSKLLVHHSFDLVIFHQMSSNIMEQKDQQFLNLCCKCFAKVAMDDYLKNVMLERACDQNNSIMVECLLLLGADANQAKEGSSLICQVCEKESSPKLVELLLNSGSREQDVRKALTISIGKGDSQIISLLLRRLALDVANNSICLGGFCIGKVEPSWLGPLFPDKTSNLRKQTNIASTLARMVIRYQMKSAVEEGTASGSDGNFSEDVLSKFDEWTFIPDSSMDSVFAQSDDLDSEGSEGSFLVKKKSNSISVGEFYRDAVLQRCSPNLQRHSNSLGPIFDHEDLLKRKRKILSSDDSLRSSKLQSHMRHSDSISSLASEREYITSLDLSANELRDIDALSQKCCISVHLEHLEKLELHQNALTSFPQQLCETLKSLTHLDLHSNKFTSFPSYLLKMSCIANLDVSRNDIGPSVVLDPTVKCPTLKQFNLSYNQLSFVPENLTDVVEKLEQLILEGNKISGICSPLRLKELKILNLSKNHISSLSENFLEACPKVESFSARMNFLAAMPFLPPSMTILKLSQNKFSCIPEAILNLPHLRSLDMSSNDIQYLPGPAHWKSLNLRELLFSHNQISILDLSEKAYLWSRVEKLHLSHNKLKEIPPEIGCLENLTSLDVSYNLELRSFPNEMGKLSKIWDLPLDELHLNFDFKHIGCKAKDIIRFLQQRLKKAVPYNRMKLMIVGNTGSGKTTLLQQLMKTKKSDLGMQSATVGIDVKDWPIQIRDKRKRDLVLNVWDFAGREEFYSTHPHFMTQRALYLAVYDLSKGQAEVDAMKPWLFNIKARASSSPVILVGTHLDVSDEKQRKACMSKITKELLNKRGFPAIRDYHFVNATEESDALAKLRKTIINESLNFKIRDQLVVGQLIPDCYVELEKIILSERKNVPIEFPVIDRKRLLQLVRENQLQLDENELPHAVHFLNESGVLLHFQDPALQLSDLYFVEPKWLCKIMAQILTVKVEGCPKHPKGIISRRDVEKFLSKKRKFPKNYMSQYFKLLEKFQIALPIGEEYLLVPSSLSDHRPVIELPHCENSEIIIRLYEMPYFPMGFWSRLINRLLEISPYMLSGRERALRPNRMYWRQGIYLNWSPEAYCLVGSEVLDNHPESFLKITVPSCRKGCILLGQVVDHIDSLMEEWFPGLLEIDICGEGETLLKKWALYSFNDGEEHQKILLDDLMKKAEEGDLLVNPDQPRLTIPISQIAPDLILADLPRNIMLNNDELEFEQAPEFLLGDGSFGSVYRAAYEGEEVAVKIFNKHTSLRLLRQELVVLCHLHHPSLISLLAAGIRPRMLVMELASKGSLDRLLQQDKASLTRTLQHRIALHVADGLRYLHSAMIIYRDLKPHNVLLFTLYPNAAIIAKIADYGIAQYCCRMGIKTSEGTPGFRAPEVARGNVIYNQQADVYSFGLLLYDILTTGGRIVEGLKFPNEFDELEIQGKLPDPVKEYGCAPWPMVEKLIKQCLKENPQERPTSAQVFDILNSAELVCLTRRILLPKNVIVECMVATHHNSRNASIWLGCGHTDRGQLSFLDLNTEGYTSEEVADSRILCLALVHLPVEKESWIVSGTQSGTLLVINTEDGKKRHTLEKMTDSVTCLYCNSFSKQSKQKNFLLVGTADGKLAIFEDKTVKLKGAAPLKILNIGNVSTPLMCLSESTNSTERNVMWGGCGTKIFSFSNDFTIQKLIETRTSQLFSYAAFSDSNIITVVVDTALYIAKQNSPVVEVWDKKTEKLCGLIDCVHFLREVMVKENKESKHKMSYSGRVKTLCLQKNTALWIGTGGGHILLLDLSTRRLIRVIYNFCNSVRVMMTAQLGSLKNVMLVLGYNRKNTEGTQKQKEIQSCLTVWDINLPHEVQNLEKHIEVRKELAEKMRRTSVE
RAF proto-oncogene serine/threonine-protein kinase (Homo sapiens), sequence (P04049 whole entry): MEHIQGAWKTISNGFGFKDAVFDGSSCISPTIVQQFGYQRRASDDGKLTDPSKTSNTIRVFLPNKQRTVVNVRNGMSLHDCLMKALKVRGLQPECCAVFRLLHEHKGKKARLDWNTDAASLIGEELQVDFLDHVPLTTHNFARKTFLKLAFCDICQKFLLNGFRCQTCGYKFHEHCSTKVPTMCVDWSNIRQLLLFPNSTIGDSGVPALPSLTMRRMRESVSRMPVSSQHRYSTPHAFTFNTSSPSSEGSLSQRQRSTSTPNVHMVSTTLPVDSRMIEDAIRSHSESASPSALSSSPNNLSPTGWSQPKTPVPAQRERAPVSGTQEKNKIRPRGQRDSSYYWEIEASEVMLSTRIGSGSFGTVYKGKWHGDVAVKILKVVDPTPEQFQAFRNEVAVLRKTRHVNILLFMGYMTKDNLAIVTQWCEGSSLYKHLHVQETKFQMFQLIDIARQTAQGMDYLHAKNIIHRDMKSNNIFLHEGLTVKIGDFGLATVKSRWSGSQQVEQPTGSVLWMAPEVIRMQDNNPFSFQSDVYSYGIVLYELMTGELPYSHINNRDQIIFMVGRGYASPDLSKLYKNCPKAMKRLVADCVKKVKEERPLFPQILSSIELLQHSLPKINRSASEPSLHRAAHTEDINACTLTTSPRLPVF

Take `Cc1cc(N/N=C/c2ccncc2)nc2ccccc12`: the Activity in data set [1] was determined as 92%; in data set [2], 103%; in data set [3], 99%; in data set [4] it was 88%; in data set [5] it was 84%; in data set [6], 89%. Further, the Activity in data set [7] was 50%. Further, in data set [8], the viability at 24 h, 10 µM was found to be 85%.

Values taken from ChEMBL document CHEMBL1770059, “Identification of chemicals to inhibit the kinase activity of leucine-rich repeat kinase 2 (LRRK2), a Parkinson's disease-associated protein” (Bioorg Med Chem Lett, 2011).
